Experimental data taken from patent publication US8044079B2, “Substituted oxindole derivatives, medicaments containing said derivatives and use thereof” (Abbott GmbH & Co. KG, priority 2005, dated 2011).

target: T1, human vasopressin V1b receptor (Homo sapiens, UniProt P47901); assay: Vasopressin V1b receptor binding test; conditions: membranes of CHO-K1 cells with human V1b receptor, displacement of 1.5 nM 3H-AVP; for compounds with more than one stereogenic center the diastereomer with greater affinity
T1 construct: expressed in transfected cells; host or cells: CHO-K1 (cell line hV1b_3H2_CHO), membrane preparation
T1 sequence (P47901 1-424): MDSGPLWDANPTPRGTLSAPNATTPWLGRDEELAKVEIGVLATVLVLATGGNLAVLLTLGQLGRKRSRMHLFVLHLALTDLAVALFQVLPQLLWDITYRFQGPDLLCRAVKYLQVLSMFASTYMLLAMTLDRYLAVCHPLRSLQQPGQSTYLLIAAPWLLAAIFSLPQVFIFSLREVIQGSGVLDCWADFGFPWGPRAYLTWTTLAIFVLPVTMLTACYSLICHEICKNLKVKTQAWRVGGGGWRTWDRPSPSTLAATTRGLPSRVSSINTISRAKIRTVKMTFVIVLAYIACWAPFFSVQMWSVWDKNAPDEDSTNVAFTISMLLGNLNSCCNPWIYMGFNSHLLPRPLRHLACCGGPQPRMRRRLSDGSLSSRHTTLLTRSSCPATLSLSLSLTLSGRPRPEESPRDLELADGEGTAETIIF
Experimental: Vasopressin V1b Receptor Binding Test:
The test substances were dissolved at a concentration of 10^−2 M in DMSO, and were further diluted to 5×10^−4 M to 5×10^−9 M in DMSO. This DMSO predilution series was diluted 1:10 with test buffer. In the test assay the substance concentration was further diluted to 1:5 (2% DMSO in the assay).
The membrane pellet was homogenized again as described and centrifuged, and was then taken up in 50 mM tris-HCl at pH 7.4, homogenized, and frozen in aliquots at −190° C. and stored in liquid nitrogen.
The incubation buffer was 50 mM tris, 10 mM MgCl2, and 0.1% BSA at pH 7.4. […] The nonspecific binding was determined using 1 μM AVP (Bachem #H1780). All determinations were performed in triplicate. After incubation (60 minutes at room temperature), the free radioligand was filtered off by vacuum filtration (Skatron 7000 cell harvester) through Wathman GF/B fiberglass filter mats, and the filters were transferred to scintillation vessels. The liquid scintillation measurement was conducted in a Model 2000 or 2200CA TriCarb unit (Packard). The measured cpm was converted to dpm using a standard quench series.
The binding parameters were calculated by nonlinear regression in SAS.
The affinities of the compounds according to the invention for human vasopressin receptor V1b were measured according to the above test, and the affinity constants (Ki) were determined.

| SMILES | Ki [nM] |
| --- | --- |
| COc1ccc(S(=O)(=O)N2C(=O)C(c3cc(CN4CCCCC4)ccc3OC)(N3CCC[C@H]3c3ncco3)c3ccc(Cl)cc32)cc1 (stereo partly drawn) [Example 40, 6-Chloro-1-(4-methoxybenzenesulfonyl)-3-(2-methoxy-5-piperidin-1-ylmethylphenyl)-3-((S)-2-oxazol-2-yl-pyrrolidin-1-yl)-1,3-dihydroindol-2-one] | 100 to 1000 |
| COc1ccc(S(=O)(=O)N2C(=O)C(c3ccc(CN4CCOCC4)cc3OC)(N3CCC[C@H]3c3ncco3)c3cc(C#N)ccc32)cc1 (stereo partly drawn) [Example 43, 5-Cyano-1-(4-methoxybenzenesulfonyl)-3-(2-methoxy-4-morpholin-4-ylmethylphenyl)-3-((S)-2-oxazol-2-yl-pyrrolidin-1-yl)-1,3-dihydroindol-2-one] | 100 to 1000 |
| CNCc1ccc(OC)c(C2(N3CCC[C@H]3c3ncco3)C(=O)N(S(=O)(=O)c3ccc(OC)cc3)c3ccc(C#N)cc32)c1 (stereo partly drawn) [Example 45, 5-Cyano-1-(4-methoxybenzenesulfonyl)-3-(2-methoxy-5-methylaminomethylphenyl)-3-((S)-2-oxazol-2-yl-pyrrolidin-1-yl)-1,3-dihydroindol-2-one] | < 10 |
| COc1ccc(S(=O)(=O)N2C(=O)C(c3cc(CN(C)C)ccc3OC)(N3CCC[C@H]3c3ncco3)c3cc(C#N)ccc32)cc1 (stereo partly drawn) [Example 46, 5-Cyano-3-(5-dimethylaminomethyl-2-methoxyphenyl)-1-(4-methoxybenzenesulfonyl)-3-((S)-2-oxazol-2-yl-pyrrolidin-1-yl)-1,3-dihydroindol-2-one] | 10 to 100 |
| CCNCc1ccc(OC)c(C2(N3CCC[C@H]3c3ncco3)C(=O)N(S(=O)(=O)c3ccc(OC)cc3)c3ccc(C#N)cc32)c1 (stereo partly drawn) [Example 47, 5-Cyano-3-(5-ethylaminomethyl-2-methoxyphenyl)-1-(4-methoxybenzenesulfonyl)-3-((S)-2-oxazol-2-yl-pyrrolidin-1-yl)-1,3-dihydroindol-2-one] | < 10 |
| CCN(C)Cc1ccc(OC)c(C2(N3CCC[C@H]3c3ncco3)C(=O)N(S(=O)(=O)c3ccc(OC)cc3)c3ccc(C#N)cc32)c1 (stereo partly drawn) [Example 48, 5-Cyano-3-{5-[(ethylmethylamino)methyl]-2-methoxyphenyl}-1-(4-methoxybenzenesulfonyl)-3-((S)-2-oxazol-2-yl-pyrrolidin-1-yl)-1,3-dihydroindol-2-one] | 10 to 100 |
| CCN(CC)Cc1ccc(OC)c(C2(N3CCC[C@H]3c3ncco3)C(=O)N(S(=O)(=O)c3ccc(OC)cc3)c3ccc(C#N)cc32)c1 (stereo partly drawn) [Example 49, 5-Cyano-3-(5-diethylaminomethyl-2-methoxyphenyl)-1-(4-methoxybenzenesulfonyl)-3-((S)-2-oxazol-2-yl-pyrrolidin-1-yl)-1,3-dihydroindol-2-one] | 10 to 100 |

The next lines start with the values.

| Ki [nM] | SMILES |
| --- | --- |
| 10 to 100 | COc1ccc(S(=O)(=O)N2C(=O)C(c3ccc(CN(C)C)cc3OC)(N3CCC[C@H]3c3ncco3)c3cc(C#N)ccc32)cc1 (stereo partly drawn) [Example 41, 5-Cyano-3-(4-dimethylaminomethyl-2-methoxyphenyl)-1-(4-methoxybenzenesulfonyl)-3-((S)-2-oxazol-2-yl-pyrrolidin-1-yl)-1,3-dihydroindol-2-one] |
| 10 to 100 | COc1ccc(S(=O)(=O)N2C(=O)C(c3ccc(CN4CCN(C)CC4)cc3OC)(N3CCC[C@H]3c3ncco3)c3cc(C#N)ccc32)cc1 (stereo partly drawn) [Example 42, 5-Cyano-1-(4-methoxybenzenesulfonyl)-3-[2-methoxy-4-(4-methylpiperazin-1-ylmethyl)phenyl]-3-((S)-2-oxazol-2-yl-pyrrolidin-1-yl)-1,3-dihydroindol-2-one] |
| < 10 | CCCNCc1ccc(OC)c(C2(N3CCC[C@H]3c3ncco3)C(=O)N(S(=O)(=O)c3ccc(OC)cc3)c3ccc(C#N)cc32)c1 (stereo partly drawn) [Example 50, 5-Cyano-1-(4-methoxybenzenesulfonyl)-3-(2-methoxy-5-propylaminomethylphenyl)-3-((S)-2-oxazol-2-yl-pyrrolidin-1-yl)-1,3-dihydroindol-2-one] |
